In patent US8598314B2 (priority 2007, dated 2013):
Like-named read-outs stand apart in the source and are kept apart here. *1 amine or outer side, *2 acyl side, *3 side chain or, on linkers, in order; H or OH if unused. Where no end group is shown, it is not given here. Side-chain parts run from the residue outwards. [ ]: non-standard residue; d: D form. The star is where a group is joined. γGlu = O=C(O)[C@H](CCC(=O)[*:2])N[*:1]; Pyrrolidine(2S-CN) = N#C[C@@H]1CCCN1*; NMeY = CN[C@@H](Cc1ccc(O)cc1)C(=O)O; AEEA = NCCOCCOCC(=O)O

What was measured:
[1] = system: plasma carboxypeptidase; test: Carboxypeptidase activity assay, PYY(3-36) in human plasma; type: biochemical; details: for inhibition of plasma carboxypeptidase activity (in words): protease inhibitor at a final concentration of 1 mM; for inhibition of the formation of PYY(3-35) (in words): 0.5 mM in human plasma, FIGS. 10-12
Description: Carboxypeptidase activity assays were performed in the presence of various agents to test for carboxypeptidase inhibitor activity of the agents.
The remainder of the sample was placed in an incubator at 37° C., mixing at 600 RPM for sixty minutes. At 10 minute intervals, a 100 μl sample of the mixture was removed and transferred to a separate microcentrifuge tubes. Following the transfer of the 100 μL sample at the zero time point and each 10 minute interval, each collected sample was extracted by slow addition of 100 μl cold 0.2% formic acid:acetonitrile, while mixing. After addition of the acetonitrile solution, the sample was vortex mixed at high speed for 15 seconds. The extracted samples were stored at −20° C. for at least 20 minutes and then centrifuged at 11,000×g for 10 minutes at 5° C. The supernatant of each sample was transferred to a new microcentrifuge tube, centrifuged again, and finally transferred for LC/MS analysis. The MS analysis was a Q1 single ion monitoring method that detects the most intense ion of the parent molecule and the peptide fragment of interest.

[2] = system: NIH/Swiss mice; test: Oral glucose tolerance test (OGTT), glucose lowering; type: in vivo; details: 30 nM/kg, blood glucose
Description: . Test compounds were injected IP (t=0 min) immediately following baseline measurements of 2 hour fasted NIH/Swiss mice. Blood samples were taken at 60, 120, and 180 minutes after injection. In some assays, samples were also taken at 240 minutes after the injection. Blood glucose was measured with a One-Touch® Ultra® glucose meter (LifeScan, Inc., Milpitas, Calif.). […].
The tests were performed as described in Example 5.

[3] = target: T1, ACE from rabbit lung (Oryctolagus cuniculus, UniProt P12822); test: ACE inhibition assay; type: biochemical
T1 construct: ACE from rabbit lung; purchased Sigma Chemical Co; host or cells: rabbit lung tissue
T1 sequence (P12822 34-1310): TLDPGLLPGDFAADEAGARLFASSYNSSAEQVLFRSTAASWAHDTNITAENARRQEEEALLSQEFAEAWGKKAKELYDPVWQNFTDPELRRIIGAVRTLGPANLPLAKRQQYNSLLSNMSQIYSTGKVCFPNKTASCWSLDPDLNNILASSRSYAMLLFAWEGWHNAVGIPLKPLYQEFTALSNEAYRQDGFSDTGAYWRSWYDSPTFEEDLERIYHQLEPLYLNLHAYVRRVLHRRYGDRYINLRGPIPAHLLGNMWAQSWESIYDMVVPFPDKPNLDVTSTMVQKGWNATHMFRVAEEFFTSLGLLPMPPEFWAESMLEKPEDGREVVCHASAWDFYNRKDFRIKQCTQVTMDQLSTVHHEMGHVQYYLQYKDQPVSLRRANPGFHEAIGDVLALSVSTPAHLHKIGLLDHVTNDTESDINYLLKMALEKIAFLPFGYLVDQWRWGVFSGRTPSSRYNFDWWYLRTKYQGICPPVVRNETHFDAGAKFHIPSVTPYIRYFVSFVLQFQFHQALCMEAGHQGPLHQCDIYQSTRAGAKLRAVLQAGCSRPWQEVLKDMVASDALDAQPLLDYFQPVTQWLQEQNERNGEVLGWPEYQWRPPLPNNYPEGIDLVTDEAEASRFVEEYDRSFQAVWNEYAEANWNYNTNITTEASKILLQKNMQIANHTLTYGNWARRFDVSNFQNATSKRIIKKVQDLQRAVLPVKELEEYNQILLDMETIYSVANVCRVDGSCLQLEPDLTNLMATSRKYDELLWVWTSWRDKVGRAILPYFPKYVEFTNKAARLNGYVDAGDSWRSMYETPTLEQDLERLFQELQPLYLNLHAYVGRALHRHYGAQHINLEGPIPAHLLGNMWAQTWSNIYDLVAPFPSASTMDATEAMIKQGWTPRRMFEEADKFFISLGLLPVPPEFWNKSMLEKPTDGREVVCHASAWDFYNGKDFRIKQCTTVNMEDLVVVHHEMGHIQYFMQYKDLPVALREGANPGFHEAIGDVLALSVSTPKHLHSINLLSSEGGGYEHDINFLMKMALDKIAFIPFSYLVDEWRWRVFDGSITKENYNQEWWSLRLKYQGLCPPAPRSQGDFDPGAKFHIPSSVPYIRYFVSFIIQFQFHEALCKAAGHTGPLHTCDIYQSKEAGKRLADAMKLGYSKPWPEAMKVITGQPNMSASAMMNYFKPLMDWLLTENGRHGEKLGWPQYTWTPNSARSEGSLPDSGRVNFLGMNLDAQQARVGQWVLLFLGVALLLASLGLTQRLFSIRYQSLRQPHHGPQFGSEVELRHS
Description: Peptide-ACE peptidase inhibitor conjugate compounds were assessed in an ACE inhibition assay using purified ACE enzyme and chromogenic substrates. An ACE stock solution was prepared by dissolving 0.1 unit of enzyme (ACE from rabbit lung, Sigma Chemical Co., St. Louis, Mo.) in 0.640 mL of HEPES buffer (0.1 M, pH=8). A 2 mM stock solution of substrate (N-benzyloxycarbonyl-Phe-His-Leu-OH) dissolved in methanol. The ACE inhibitor compounds were dissolved in phosphate buffer (0.1 M, pH=8) at concentrations of 0.0, 1, 10, 20, 60 and 100 μM. For the inhibition assay, six 2 mL microcentrifuge tubes were prepared containing 1.45 mL of phosphate buffer pH=8, 0.05 mL of 10% NaCl and 0.015 mL of substrate solution. To each microcentrifuge tube was added 0.015 mL of one of the ACE inhibitor compound's stock solutions. The solutions were heated at 37° C. for about 5 minutes. The reaction was started by the addition of 5 μL of the ACE stock solution to each tube mixture (30 seconds in between). The reaction mixtures were incubated at 37° C. After 5 min, 10 min, 30 min and 60 min., aliquots of 100 μL were taken from each tube (each sample was taken in intervals of 30 seconds). Tubes containing the 100 μL sample were floated in a boiling water bath for 5 min. and then cooled. The reaction samples were then treated with 20 μL of 2M NaOH and 20 μL of 0.1% phthaldialdehyde solution. The tubes were shaken for 4 minutes and 10 μL of 6 M HCl were added. […] Initial rates were determined from linear portions of product release curves. Starting substrate concentration in all assays was 20 μM. Apparent binding constants (Kd^app or Ki^app) of inhibitors to ACE were determined by fitting inhibition curves (initial rate vs. inhibitor concentration) to equation:
[formula] where v0 is reaction rate in the absence of inhibitor and [I]-inhibitor concentration. Fits were done by least-squares method using KaleidaGraph 3.6 (Synergy Software, Reading Pa.).

Molecule: NCCc1ccc(S(=O)(=O)F)cc1 [AEBSF, 4-(2-aminoethyl)-bezenesulfonylfluoride, reference compound]
- inhibition of plasma carboxypeptidase activity (in words) [1]: inhibited

Molecule: O=C(O)CN(CCN(CC(=O)O)CC(=O)O)CC(=O)O [EDTA, reference compound]
- inhibition of plasma carboxypeptidase activity (in words) [1]: not

Molecule: GIP(1-30)-exendin-4(31-39)-Ado-Lys-N-ε-(2-(S)-cyano pyrrolidyl)
- OGTT (30 nM/kg) % maximal decrease [2]: −18%

Molecule: NCCCC[C@H](N[C@@H](CCc1ccccc1)C(=O)O)C(=O)N1CCC[C@H]1C(=O)O [Lisinopril, reference compound]
- IC50 ([3]; commercial lisinopril, read-out: ACE inhibition IC50): 1.3 nM
- IC50 ([3]; synthesized lisinopril, read-out: ACE inhibition IC50): 2.8 nM

Molecule: GIP(1-30)-exendin-4(31-39)-Ado-Ado-Lys-N-ε-(2-(S)-cyano pyrrolidyl)
- OGTT (30 nM/kg) % maximal decrease [2]: −22%

Molecule: [^16Lys (N-ε-(Aun-Aun-(γ-L-Glu-2-(S)-cyano pyrrolidyl)))] GIP(1-30)-exendin(31-39)
- OGTT (30 nM/kg) % maximal decrease [2]: −3%

Molecule: GIP(1-30)-Ado-Lys-N-ε-(2-(S)-cyano pyrrolidyl) (YAEGTFISDYSIAMDKIHQQDFVNWLLAQK)
- OGTT (30 nM/kg) % maximal decrease [2]: −18%

Molecule: ^36N-methyl-Tyr-amide-PYY(34-36) (Gln-Arg-[NMeY]-NH2; N-terminus assumed; SMILES CN(C(=O)[C@H](CCCNC(=N)N)NC(=O)[C@@H](N)CCC(N)=O)[C@@H](Cc1ccc(O)cc1)C(N)=O) [N-terminal truncation of 36N-methyl-Tyr-amide-PYY(3-36)]
- inhibition of the formation of PYY(3-35) (in words) [1]: did not inhibit

Molecule: [^14Leu] GIP(1-30)-Ado-Lys-N-ε-(2-(S)-cyano pyrrolidyl) (YAEGTFISDYSIALDKIHQQDFVNWLLAQK)
- OGTT (30 nM/kg) % maximal decrease [2]: −9%

Molecule: CC(C)C[C@H](NP(=O)(O)O[C@@H]1O[C@@H](C)[C@H](O)[C@@H](O)[C@H]1O)C(=O)N[C@@H](Cc1c[nH]c2ccccc12)C(=O)O [phosphoramidon, reference compound]
- inhibition of plasma carboxypeptidase activity (in words) [1]: not

Molecule: GIP(1-30)-Ado-Ado-Lys-N-ε-(2-(S)-cyano pyrrolidyl)
- OGTT (30 nM/kg) % maximal decrease [2]: −17%

Molecule: CC[C@H](C)[C@H](NC(=O)[C@H](CC(C)C)NC(=O)[C@H](Cc1c[nH]c2ccccc12)NC(=O)[C@H](CC(=O)O)NC(=O)[C@@H](NC(=O)[C@H](Cc1ccccc1)NC(=O)[C@H](CCC(=O)O)NC(=O)[C@H](CCCCN)NC(=O)[C@H](C)NC(=O)[C@H](C)NC(=O)[C@H](CCCCN)NC(=O)[C@H](CCC(=O)O)NC(=O)[C@H](CC(=O)O)NC(=O)[C@H](CC(C)C)NC(=O)[C@H](CCC(N)=O)NC(=O)[C@H](CCC(N)=O)NC(=O)[C@@H](NC(=O)[C@@H](NC(=O)[C@H](CC(=O)O)NC(=O)[C@H](CO)NC(=O)[C@@H](NC(=O)[C@H](Cc1ccccc1)NC(=O)[C@@H](NC(=O)CNC(=O)[C@H](CCC(=O)O)NC(=O)[C@H](C)NC(=O)[C@@H](N)Cc1c[nH]cn1)[C@@H](C)O)[C@@H](C)O)C(C)C)[C@@H](C)O)[C@@H](C)CC)C(=O)N[C@@H](CC(N)=O)C(=O)NCC(=O)NCC(=O)N1CCC[C@H]1C(=O)N[C@@H](CO)C(=O)N[C@@H](CCCCN)C(=O)N[C@@H](CCC(=O)O)C(=O)N[C@H](C(=O)N[C@H](C(=O)N[C@@H](CO)C(=O)NCCOCCOCCOCC(=O)NCCOCCOCC(=O)NCCCC[C@H](NC(CCc1ccccc1)C(=O)O)C(=O)N1CCC[C@H]1C(=O)O)[C@@H](C)CC)[C@@H](C)CC (stereo partly drawn) [Compound 5713]
- IC50 ([3]; substrate N-benzyloxycarbonyl-Phe-His-Leu-OH 20 μM, read-out: ACE inhibition IC50): 700 nM

Molecule: CC[C@H](C)[C@H](NC(=O)[C@H](Cc1ccccc1)NC(=O)[C@H](CC(C)C)NC(=O)[C@H](CCCNC(=N)N)NC(=O)[C@@H](NC(=O)[C@H](C)NC(=O)[C@H](CCC(=O)O)NC(=O)[C@H](CCC(=O)O)NC(=O)[C@H](CCC(=O)O)NC(=O)[C@H](CC(C)C)NC(=O)[C@H](CCC(N)=O)NC(=O)[C@H](CCCCN)NC(=O)[C@H](CO)NC(=O)[C@H](CC(C)C)NC(=O)[C@H](CC(=O)O)NC(=O)[C@H](CO)NC(=O)[C@@H](NC(=O)[C@H](Cc1ccccc1)NC(=O)[C@@H](NC(=O)CNC(=O)[C@H](CCC(=O)O)NC(=O)CNC(=O)[C@@H](N)Cc1c[nH]cn1)[C@@H](C)O)[C@@H](C)O)C(C)C)C(=O)N[C@@H](CCC(=O)O)C(=O)N[C@@H](Cc1ccccc1)C(=O)N[C@@H](CC(C)C)C(=O)N[C@@H](CCCCN)C(=O)N[C@@H](CC(N)=O)C(=O)NCC(=O)NCC(=O)NCCCC[C@H](NC(CCc1ccccc1)C(=O)O)C(=O)N1CCCC1C(=O)O (stereo partly drawn) [3633/42/1, [^14Leu,^25Phe]Exendin-4(1-28)-Gly-Gly-CONH-Lisinopril diacid]
- IC50 [3]: 1500 nM

Molecule: ^36N-methyl-Tyr-amide-PYY(22-36) (ASLRHYLNLVTRQR[NMeY]-NH2; N-terminus assumed; SMILES CC(C)C[C@H](NC(=O)[C@H](CO)NC(=O)[C@H](C)N)C(=O)N[C@@H](CCCNC(=N)N)C(=O)N[C@@H](Cc1c[nH]cn1)C(=O)N[C@@H](Cc1ccc(O)cc1)C(=O)N[C@@H](CC(C)C)C(=O)N[C@@H](CC(N)=O)C(=O)N[C@@H](CC(C)C)C(=O)N[C@H](C(=O)N[C@H](C(=O)N[C@@H](CCCNC(=N)N)C(=O)N[C@@H](CCC(N)=O)C(=O)N[C@@H](CCCNC(=N)N)C(=O)N(C)[C@@H](Cc1ccc(O)cc1)C(N)=O)[C@@H](C)O)C(C)C) [N-terminal truncation of 36N-methyl-Tyr-amide-PYY(3-36)]
- inhibition of the formation of PYY(3-35) (in words) [1]: measurable but lower activity

Molecule: Lys^30 N-ε-(Ado-(γ-L-Glu-2-(S)-cyano pyrrolidyl)) GIP(1-30)-exendin-4(31-39)
- OGTT (30 nM/kg) % maximal decrease [2]: −11%

Molecule: [Lys^30 N-ε-(Ado-(γ-L-Glu-2-(S)-cyano pyrrolidyl))]GIP(1-30) (YAEGTFISDYSIAMDKIHQQDFVNWLLAQK([AEEA-γGlu-Pyrrolidine(2S-CN)]))
- OGTT (30 nM/kg) % maximal decrease [2]: −10%

Molecule: CNC(Cc1ccc(O)cc1)C(N)=O (stereo not drawn) [N-methyl-Tyr-NH2]
- inhibition of the formation of PYY(3-35) (in words) [1]: did not inhibit
